Test results: patent US9863953B2, “Method for determining prognosis of cancer” (KYOTO UNIVERSITY, priority 2013, dated 2018)
Entries after “also recorded” stand apart in the source; their conditions may differ.

Tests used:
[1] = system: Rho; test: Active Rho (GTP-Rho) pull-down assay in RKO cells; type: cell-based, human
Description: GTP-Rho was pulled-down and detected by using Rho activation assay kit (Thermo) according to the manufacturers' protocol. Briefly, tissues or CRC cells were lysed with lysis buffer, and GTP-Rho in the lysates was pulled-down using Rhotekin and detected by anti-Rho antibody in western analysis.
(§1) Recombinant DLL4 (rDLL4) (R&D) was resuspended with PBS. For scratch and GTP-Rho pull-down assays, 1 μg was put into 6-well culture plate to coat its surface with rDLL4 at 0.1 μg/cm^2. For q-RT-PCR assays, the plate surface was coated with rDLL4 at 0.1-1 μg/cm^2. After overnight incubation at 4-degree, the plates were washed once with PBS and plated with CRC cells. For expression analysis of HES1 and DAB1, cells were lysed and mRNA was extracted after four hours.
(§2) Cultured CRC cells were washed with PBS, treated with 10 mM EDTA in PBS for 2 minutes, and incubated again in culture media. […] After incubation for defined period, cells were lysed and cleaved Notch and GTP-Rho was detected. DAPT (Calbiochem) were applied to cultured CRC cells to inhibit its γ-secretase activity.

[2] = system: Notch receptor; test: Notch receptor cleavage (NICD) after EDTA treatment, IP-western; type: cell-based, human; conditions: 10 mM EDTA; anti-Notch1 (C-term) antibody
Description: as §2
ABL1B cDNA was prepared from cDNA pool of human colon and tagged with hemaglutinin (HA) sequence to construct ABL1B-HA. The wild-type cDNA was mutagenized by QuikChange Lightning Multi Site-Directed Mutagenesis Kit (Agilent) to derive kinase-dead ABL1B(K290R)-HA mutant. These ABL1B constructs were placed into pEFBosneo expression vector (provided by Shigekazu Nagata, Kyoto University, Japan). DAB1-Flag cDNA was inserted into pcDNA3 (Invitrogen). TRIO cDNA (provided by Anne Debant, CRBM-CNRS, France) was tagged with T7 sequence and inserted into pCX expression vector carrying CAG promoter and rabbit β-globin poly(A) (provided by Masaru Okabe, Osaka University, Japan). NICD-Myc expression vector was provided by Tasuku Honjo, Kyoto University, Japan. These expression vectors were transfected into CRC or HEK293T cells using Lipofectamine LTX (Invitrogen). Sixteen hours post-transfection, the cells were lysed in lysis buffer (10 mM Tris-Cl, 1 mM EDTA, 150 mM NaCl and 1% NP-40). The supernatants were mixed with agarose conjugated with anti-HA, Flag, T7, or Myc antibodies (MBL). […]

[3] = system: HCT116 cells; test: Attachment assay of CRC cells to lung endothelial cell layer; type: cell-based, human
Description: Attachment assay was performed according to the established protocol {Reymond, 2012}. Briefly, human lung endothelial cells were plated onto collagen-coated dish. After they reached confluent to form a layer, EGFP-labeled CRC cells were plated onto it. Fifteen minutes later, floating cells were washed with PBS, and the numbers of CRC cells adhering to the endothelial layer were counted under a fluorescent microscope.

[4] = system: DAB1; test: DAB1 mRNA quantitative RT-PCR in LS174T cells on rDLL4; type: cell-based, human
Description: as §1
TaqMan primers/probes for quantification of HES1, DAB1, ABL1, and ABL2 mRNAs were purchased from ABI. ChIP analyses were performed by using CRC cells and anti-Rbpj (Institute of Immunology) and anti-NICD (Cell Signaling Technology) antibodies according to published protocol (Kakizaki et al., 2010). Precipitated fragments of genomic DNA were tested for enrichment of promoter regions of HES1 gene by SYBR green (ABI) using hHES1ChIP.F ([…]) (SEQ ID NO: 4) and hHES1ChIP.R ([…]) (SEQ ID NO: 5) primers that sandwich high affinity binding sequence of Rbpj. Similarly, enrichment of DAB1 promoter fragments was quantified by hDAB1ChIP.F2 ([…]) (SEQ ID NO: 6) and hDAB1ChIP.R2 ([…]) (SEQ ID NO: 7) primers.

[5] = system: RKO human CRC cells; test: Matrigel invasion assay, RKO cells; type: cell-based; conditions: for Matrigel invasion of RKO cells: inhibitor treatment 16 h prior to assay
Description: (§3) Matrigel invasion assays were performed as previously described using Matrigel (BD) {Sonoshita, 2011}. For TEM assay, human umbilical vein endothelial cell (HUVEC) was seeded in the upper chamber of Transwell (Corning). One day (24 h) later, EGFP-labeled CRC cells were plated onto the layer of HUVEC. After 24 h, CRC cells migrated to the lower side of the membrane were counted under a fluorescent microscope.

[6] = system: HCT116 cells; test: Matrigel invasion assay, HCT116 cells; type: cell-based, human
Description: as §3

[7] = system: RKO human CRC cells; test: Transendothelial migration (TEM) assay, RKO cells; type: cell-based; conditions: inhibitor treatment 16 h prior, HUVEC layer, 24 h
Description: as §3

[8] = system: HCT116; test: Transendothelial migration (TEM) assay, HCT116 cells; type: cell-based, human; conditions: HCT116, data not shown
Description: as §3

[9] = system: Apc/Aes compound mutant mice; test: Tumor invasion histopathology in Apc/Aes compound mutant mice; type: in vivo, mouse; conditions: 50 mg/kg/day i.p. for 9 weeks
Text: Apc^+/Δ716 mutant mice were generated and maintained as described previously {Oshima, 1995}. Apc^+/Δ716Aes^Floxed/FloxedvCre^ERT2 (abbreviated as Apc/Aes) mice were constructed as reported to knockout Aes in Apc^+/Δ716 mice by virtue of Cre^ERT2 whose expression is driven by intestinal epithelium-specific villin promoter {Sonoshita, 2011}. Rbpj floxed allele was constructed as reported {Han, 2002}, obtained from RIKEN BRC, and crossed with Apc/Aes mice to derive Apc^+/Δ716Aes^Floxed/FloxedRbpj^Floxed/FloxedvCre^ERT2 (Apc/Aes/Rbpj) mice. Dab1 floxed allele was constructed (Imai et al., in preparation) and crossed with Apc/Aes mice to obtain Apc^+/Δ716Aes^Floxed/FloxedDab1^Floxed/FloxedvCre^ERT2 (Apc/Aes/Dab1) mice. Tumor histopathology in compound mutant mice was analyzed at 12 weeks of age. […] Total of ˜100 tumors with diameters larger than 2 mm from 5 mice were scored for each mutant genotype. CRC cell lines were obtained from ATCC. Upon transplantation into the rectal smooth muscle, CRC cells formed a visible primary tumor within a week. Six weeks later, mice were euthanized and examined for metastatic foci under a fluorescent microscope (Leica). All animal experiments were conducted according to the protocol approved by the Animal Care and Use Committee of Kyoto University.

[10] = system: TRIO; test: Cell-free RhoGEF GTP exchange assay; type: biochemical, human; conditions: TRIO(WT) from imatinib-treated HEK293T transfectants; recombinant RhoA, mant-GTP, 10 min
Text: First, we transfected HEK293T cells with an expression plasmid for T7-TRIO (either WT, Y2681F or G2699V), and pulled-down each TRIO protein from cell lysates using agarose conjugated with anti-T7 antibody (MBL). Then we mixed the TRIO fraction with recombinant RhoA in the presence of mant-GTP (Cytoskeleton) that emits stronger fluorescence when bound to Rho small GTPases (Rossman et al., 2002).

With `C[C@H](NC(=O)Cc1cc(F)cc(F)c1)C(=O)N[C@H](C(=O)OC(C)(C)C)c1ccccc1` [DAPT] the “Rho activation (GTP-Rho) after Notch receptor activation with EDTA” value ([1]; RKO cells, 10 μM DAPT for 12 h, then 10 mM EDTA) was “inhibited; also recorded: Suppression”, the “Cleaved Notch receptor (NICD) upon EDTA treatment” value [2] was “blocked; also recorded: inhibited” and the “Number of CRC cells remaining attached to the EC layer” value ([3]; HCT116 treated 2 hours, washing at 15 min post plating) was “reduced”. For the same compound, the “EC adhesion of CRC cells with RBPJ knocked-down” value ([3]; RBPJ-knockdown HCT116, DAPT 2 hours) was “prevented” and the “DAB1 mRNA expression induced by rDLL4” value ([4]; LS174T, 10 μM DAPT for 24 h, rDLL4-coated dishes, 4 h) was “inhibited”.
With `CCN(CC)CCCC(C)Nc1nc(C)cc(Nc2ccc3nc(C)cc(N)c3c2)n1` (centres unmarked) [NSC23766] the “Matrigel invasion of RKO cells” value [5] was “did not affect” and the “Matrigel invasion of RKO cells” value ([5]; listed as NSC27366) was “Little effect”.
In the case of `CC(C)(C)n1nc(-c2ccc(Cl)cc2)c2c(N)ncnc21` [PP2], the “effect on the RKO cell invasion in culture” value ([5]; RKO cell invasion in culture, FIG. 10A) is reported as ~20%, the “Matrigel invasion of RKO cells” value [5] is reported as “only a minor inhibition” and the Matrigel invasion ([6]; PP2 at 10 μm, FIG. 10A) is reported as “only a minor effect”.
In the case of `C[C@@H](N)[C@H]1CC[C@H](C(=O)Nc2ccncc2)CC1` [Y-27632], the “Matrigel invasion of RKO cells” value [5] is reported as “suppresses”, the “Transendothelial migration (TEM) of RKO cells” value [7] is reported as “suppresses” and the “Matrigel invasion of HCT116 cells” value ([6]; HCT116, data not shown) is reported as “suppressed”. For the same compound, the “Transendothelial migration (TEM) of HCT116 cells” value [8] was “suppressed”.
With `Cc1nc(Nc2ncc(C(=O)Nc3c(C)cccc3Cl)s2)cc(N2CCN(CCO)CC2)n1.O` [dasatinib, N-(2-chloro-6-methylphenyl)-2-[[6-[4-(2-hydroxyethyl)-1-piperazinyl]-2-methyl-4-pyrimidinyl]amino]-5-thiazole carboxamide monohydrate] the “Matrigel invasion of RKO cells” value [5] was “suppressed the invasion significantly” and the “HCT116 cell invasion in Matrigel” value ([6]; dasatinib at 0.01 μm, FIG. 10A) was “tight suppression”.
For `Cc1ccc(NC(=O)c2ccc(CN3CCN(C)CC3)cc2)cc1Nc1nccc(-c2cccnc2)n1` [imatinib, 4-(4-methylpiperazin-1-ylmethyl)-N-[4-methyl-3-(4-(pyridin-3-yl)-pyrimidin-2-ylamino-)phenyl]-benzamide], the “Matrigel invasion of RKO cells” value [5] was “blocks”, the “Rho activation (GTP-Rho) induced by EDTA” value ([1]; RKO cells, pull-down 5 minutes after EDTA, dose-dependent) was “blocked; also recorded: inhibits” and the “tumor size or number” value [9] was “without changing”. For the same compound, the “CRC invasion (depth of tumor invasion)” value ([9]; 50 mg/kg/day) was “significant suppression; also recorded: suppresses” and the “Capacity of Rho activation (RhoGEF activity) of TRIO(WT) purified from imatinib-treated cells” value [10] was “significantly decreased”.
“rDLL4: recombinant extracellular domain of Notch ligand DLL4 (R&D), immobilized on dish surface” was tested, and the “Rho activation (GTP-Rho)” value ([1]; cultured CRC cells on dishes coated with rDLL4) was “activated” and the “DAB1 mRNA expression” value ([4]; LS174T on immobilized rDLL4 0.1-1 μg/cm^2, 4 h, dose-dependent) was “increased; also recorded: induces”.
